Laboratory results: publication PMC11111408, “Concurrent inhibition of oncogenic and wild-type RAS-GTP for cancer therapy” (Nature, 2024)
Several values for one entry are separate records, joined by “and”; a condition that tells them apart may be missing. Equal values may be shown once.

Tests used:
[1] = biological target: T1, MRAS and other RAS family small GTPase proteins (Homo sapiens, UniProt O14807, Q71R); assay: Cellular BRET between CYPA and small GTPases (RIT1, MRAS, RRAS, RRAS2, Rheb); assay type: cell-based; details: MRAS Q71R, single replicates
T1 construct: expressed in transfected cells; host or cells: U2OS PPIA-KO
T1 sequence (O14807 1-208 Q71R): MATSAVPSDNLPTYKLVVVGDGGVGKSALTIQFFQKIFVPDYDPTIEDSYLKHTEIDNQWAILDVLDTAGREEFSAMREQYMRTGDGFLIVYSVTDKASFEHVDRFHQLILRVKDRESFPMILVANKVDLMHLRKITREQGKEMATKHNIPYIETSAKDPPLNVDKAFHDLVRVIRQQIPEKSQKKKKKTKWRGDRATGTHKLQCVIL

[2] = tested on: MRAS and other RAS family small GTPase proteins; assay: as above; assay type: cell-based, human; details: cellular BRET with CYPA

CCn1c(-c2cc(N3CCN(C4CC4)CC3)cnc2[C@H](C)OC)c2c3cc(ccc31)-c1csc(n1)C[C@H](NC(=O)[C@H]1[C@@H]3COC[C@@H]31)C(=O)N1CCC[C@H](N1)C(=O)OCC(C)(C)C2 [RMC-7977]
Cellular milliBRET signal between CYPA and small GTPase protein ([1]; RMC-7977 1.524 nM): 0.1742 milliBRET and -0.02549 milliBRET and -0.02476 milliBRET and 0.1125 milliBRET and -0.009573 milliBRET and 0.6001 milliBRET | Cellular milliBRET signal between CYPA and small GTPase protein ([1]; RMC-7977 4.572 nM): 0.2187 milliBRET and 0.4442 milliBRET and 0.7681 milliBRET and 0.6759 milliBRET and 0.0576 milliBRET and 0.4387 milliBRET | Cellular milliBRET signal between CYPA and small GTPase protein ([1]; RMC-7977 13.717 nM): 1.192 milliBRET and 1.33 milliBRET and 1.81 milliBRET and 1.499 milliBRET and 1.997 milliBRET and 1.461 milliBRET | Cellular milliBRET signal between CYPA and small GTPase protein ([1]; RMC-7977 41.152 nM): 3.258 milliBRET and 4.102 milliBRET and 3.883 milliBRET and 4.836 milliBRET and 4.487 milliBRET and 5.493 milliBRET | Cellular milliBRET signal between CYPA and small GTPase protein ([1]; RMC-7977 123.457 nM): 7.175 milliBRET and 7.5859 milliBRET and 7.924 milliBRET and 8.745 milliBRET and 8.3065 milliBRET and 8.689 milliBRET | Cellular milliBRET signal between CYPA and small GTPase protein ([1]; RMC-7977 370.370 nM): 10.161 milliBRET and 10.397 milliBRET and 10.5343 milliBRET and 10.3086 milliBRET and 10.5443 milliBRET and 10.7709 milliBRET | Cellular milliBRET signal between CYPA and small GTPase protein ([1]; RMC-7977 1111.111 nM): 10.7121 milliBRET and 10.5516 milliBRET and 12.3365 milliBRET and 10.0544 milliBRET and 11.7366 milliBRET and 10.787 milliBRET | tri-complex formation potency for KRAS versus MRAS and other RAS family small GTPases [2]: more than tenfold more potent
